Laboratory results from EP0006061A1, “Medicinal compound consisting of a derivative of cyclopentyl aldehyde” (INSTITUT DE RECHERCHES CHIMIQUES ET BIOLOGIQUES APPLIQUEES …, priority 1978, dated 1979).
Converted amounts (≈) assume the structure as drawn.

Experiments:
[1] = test system: Escherichia coli; assay: bacteriostatic activity (MIC); type: cell-based; settings: read-out: CMI (concentration minimale inhibitrice)
Procedure: (§1) Les essais pharmaceutiques qui ont été mis en oeuvre avec les produits des exemples 1 et 4, ont été résumés ci-après : • 1°/ essais avec l'exemple 1 • a/ activité bactériostatique L' α-(2-formyl-3-méthyl-cyclopentyl)-acétal- déhyde inhibe les bactéries Gram (+) et Gram (-). Les CMI (concentration minimale inhibitrice) sont les suivantes : 0,75 mg/ml sur Staphylococcus aureus Londres, 1,2 mg/ml sur Escherichia coli, et 1,5 mg/ml sur Proteus • b/ activité antispasmodique : Les DE-50 du produit de l'exemple 1 ont été déterminés • (i) in vitro sur iléon isolé de cobaye vis à vis de l'histamine : DE - 50 = 50 γ/ml; • (ii) in vivo sur l'animal vivant selon la méthode de KONZETT & ROESLLER : DE - 50 = 2,6 mg/kg par administration i.v. • c/ activité antianaphylactique : Des cobayes mâles sont sensibilisés par deux injections de 0,5 ml d'une solution d'albumine à 2 g/1, à deux jours d'intervalle. Quatre semaines aprës,le choc anaphylactique mortel est provoqué par injection i.v. de 0,2 ml d'une solution aqueuse d'ovalbumine à 2 g/1. Les produits à tester sont administrés 30 mn avant (administration i.p.) ou en même temps (administration i.v.) que l'injection provoquant ledit choc anaphylactique. Les résultats sont donnés dans le tableau I pour le produit de l'exemple 1 et la Prométhazine en tant que produit de référence : [formula] • 2°/ essais avec le produit de l'exemple 4 (constitué par un mélange de 87 % en poids d'isomère "cis-trans" et 13 % en poids d'isomère "trans-cis). • a/ activité bactériostatigue : Le produit de l'exemple 4 inhibe les bactéries Gram (+) et Gram (-). Ses CMI sont les suivantes : • 1,5 mg/m sur Staphylococcus aureus, Londres • 1 mg/ml sur Escherichia coli (souche 548) • 1,75 mg/ml sur Proteus vulgaris (souche 1557) • 2,5 mg/ml sur Klebsiella pneumoniae (souche 433), • 1 mg/ml sur Salmonella typhi murium (souche IP), • 1,5 mg/ml sur Staphylococcus aureus (souche 634), • 1,25 mg/ml sur Streptococcus (souche 1178) • 1,25 mg/ml sur Bacillus substilis, (les souches 548, 1557, 433, 634, et 1178 étant celles du catalogue de la collection du "Centre International de Distribution de Souches et d'Information sur les Types Microbiens" de . Lausanne, et la souche "IP" provenant de l'Institut Pasteur de Paris. • b/ activité bactéricide Le produit de l'exemple 4 détruit les bactéries Gram (+) et Gram (-). Ses CMB (concentration minimalebactéricide) déterminées sur milieu solide (quand moins de 0,01% de germes survivent) sont : • 1,75 mg/ml sur Staphylococcus aureus Londres • 1,5 mg/ml sur Escherichia coli (souche 548) • 2 mg/ml sur Proteus vulgaris (souche 1557) • 3 mg/ml sur Klebsiella pneumoniae (souche 433), • 1,25 mg/ml sur Salmonella typhi murium (souche I.P.) • 1,75 mg/ml sur Staphylococcus aureus (souche 634) • 2 mg/ml sur Streptococcus (souche 1178) • 2,5 mg/ml sur Bacillus substilis. • c/ activité bronchospatique Des cobayes mâles ou femelles [20 animaux (pesant 300-500 g) par dose et par produit à tester] sont exposés à un aérosol de l'exemple 4 (50 g/l en solution eau-éthanol) ou de Prométhazine (produit de référence) pendant 10 mn.

[2] = test system: Proteus; assay: bacteriostatic activity (MIC); type: cell-based; settings: read-out: CMI (concentration minimale inhibitrice)
Procedure: as §1

[3] = test system: Staphylococcus aureus Londres; assay: bacteriostatic activity (MIC); type: cell-based; settings: read-out: CMI (concentration minimale inhibitrice)
Procedure: as §1

[4] = test system: l'animal vivant; assay: antispasmodic activity in vivo, method of KONZETT & ROESLLER; settings: iv, i.v. administration, read-out: DE - 50 (the source's name)
Procedure: (§2) Les essais pharmaceutiques qui ont été mis en oeuvre avec les produits des exemples 1 et 4, ont été résumés ci-après : • 1°/ essais avec l'exemple 1 • a/ activité bactériostatique L' α-(2-formyl-3-méthyl-cyclopentyl)-acétal- déhyde inhibe les bactéries Gram (+) et Gram (-). Les CMI (concentration minimale inhibitrice) sont les suivantes : 0,75 mg/ml sur Staphylococcus aureus Londres, 1,2 mg/ml sur Escherichia coli, et 1,5 mg/ml sur Proteus • b/ activité antispasmodique : Les DE-50 du produit de l'exemple 1 ont été déterminés • (i) in vitro sur iléon isolé de cobaye vis à vis de l'histamine : DE - 50 = 50 γ/ml; • (ii) in vivo sur l'animal vivant selon la méthode de KONZETT & ROESLLER : DE - 50 = 2,6 mg/kg par administration i.v. • c/ activité antianaphylactique : Des cobayes mâles sont sensibilisés par deux injections de 0,5 ml d'une solution d'albumine à 2 g/1, à deux jours d'intervalle. Quatre semaines aprës,le choc anaphylactique mortel est provoqué par injection i.v. de 0,2 ml d'une solution aqueuse d'ovalbumine à 2 g/1. Les produits à tester sont administrés 30 mn avant (administration i.p.) ou en même temps (administration i.v.) que l'injection provoquant ledit choc anaphylactique. […]

[5] = test system: iléon isolé de cobaye; assay: antispasmodic activity in vitro against histamine on isolated ileum; type: cell-based; settings: isolated guinea pig ileum, read-out: DE - 50 (the source's name)
Procedure: as §2

[6] = test system: rat femelle; assay: anti-inflammatory activity, carrageenin oedema test; type: in vivo; settings: dose 200 µg per rat
Excerpt: L'activité anti-inflammatoire de l'exemple 4 a été étudiée chez le rat femelle (de poids 100 g) selon le test de l'oedème à la carragéenine.Les résultats sont donnés dans le tableau IV où l'Indométacine est utilisée comme produit de référence : […]

CC1CCC(CC=O)C1C=O (stereo not drawn) [Ex. 1, α-(2-formyl-3-méthyl-cyclopentyl)-acétaldéhyde]
MIC [1]: 1200 µg/mL (≈ 7.78 mM) | MIC [2]: 1500 µg/mL (≈ 9.73 mM) | MIC [3]: 750 µg/mL (≈ 4.86 mM) | ED50 [4]: 2.6 mg/kg | EC50 [5]: 50 µg/mL (≈ 0.324 mM)

COc1ccc2c(c1)c(CC(=O)O)c(C)n2C(=O)c1ccc(Cl)cc1 [Indometacine, reference compound]
inhibition par rapport aux témoins [6]: 57%
